Measurements from ChEMBL document CHEMBL1201862, “PubChem BioAssay data set” (2004).
Counter-ions that a name gives are not always drawn.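 Briefly, cells in 96-well plates were exposed to five compound concentrations for 48 h, and endpoints were estimated by linear interpolation. Abbreviation: GI50, concentration required for 50% inhibition of growth.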 Activity calls are given as the source filed them. Cut-off read from the data, not from the text of the source: active = GI50 up to about 1.1 µM and inactive = higher.

Experiments:
Experiment in all cases: growth of human tumour cells (NCI), 48 h
KM-20L2 = tested on: KM-20L2
M19-MEL = tested on: M19-MEL
XF498 = tested on: XF498
SNB-78 = tested on: SNB-78
LXFL 529 = tested on: LXFL 529
DLD-1 = tested on: DLD-1
DMS-114 = tested on: DMS-114
HOP-18 = tested on: HOP-18
RXF 631 = tested on: RXF 631

SMILES | GI50 (KM-20L2) | GI50 (M19-MEL) | GI50 (XF498) | GI50 (SNB-78) | GI50 (LXFL 529) | GI50 (DLD-1) | GI50 (DMS-114) | GI50 (HOP-18) | GI50 (RXF 631)
CCOc1ccc(NC(=O)C2=C(C)NC(C)=C(C(=O)Nc3ccc(OCC)cc3)C2c2ccc([N+](=O)[O-])cc2)cc1 | 20 µM (inactive) | 26.2 µM (inactive) | 25.3 µM (inactive) | 34.1 µM (inactive) | 22.1 µM (inactive) | 25.9 µM (inactive) | 18.4 µM (inactive) | – | –
COC(=O)c1nc(NC#N)nc(O)c1C | > 100 µM (inactive) | > 100 µM (inactive) | – | > 60.5 µM (inactive) | > 64.9 µM (inactive) | > 100 µM (inactive) | > 100 µM (inactive) | > 100 µM (inactive) | > 100 µM (inactive)
CC(=O)OCCC(O[Si](c1ccccc1)(c1ccccc1)C(C)(C)C)C(C)(C)O (configuration not stated) | 32.3 µM (inactive) | 23.1 µM (inactive) | 29.4 µM (inactive) | 59.4 µM (inactive) | 42.7 µM (inactive) | – | 19.9 µM (inactive) | 25.2 µM (inactive) | 34.3 µM (inactive)
C=C(CN(C)C)C(=O)c1ccccc1Cl | 30.1 µM (inactive) | 18.3 µM (inactive) | – | 30.4 µM (inactive) | 12.5 µM (inactive) | 17.3 µM (inactive) | 15.9 µM (inactive) | 19.5 µM (inactive) | 21.2 µM (inactive)
Cc1ccc(/C=N/NS(=O)(=O)c2ccccc2)cc1C | > 100 µM (inactive) | > 100 µM (inactive) | 87.3 µM (inactive) | > 100 µM (inactive) | 36.5 µM (inactive) | > 100 µM (inactive) | 46.1 µM (inactive) | > 100 µM (inactive) | –
O=C1C(CN2CCOCC2)CCCC1CN1CCOCC1 (configuration not stated) | 6.43 µM (inactive) | 7.11 µM (inactive) | – | 2.35 µM (inactive) | 1.53 µM (inactive) | 0.67 µM (active) | 5.61 µM (inactive) | 1.81 µM (inactive) | 10.5 µM (inactive)
N[C@@H](Cc1ccc(N(CCCl)CCCl)cc1)C(=O)O [MELPHALAN HYDROCHLORIDE] | 76.2 µM (inactive) | 39.6 µM (inactive) | – | 55.5 µM (inactive) | 49.3 µM (inactive) | 47 µM (inactive) | 20.2 µM (inactive) | – | –
O=C1C2c3[nH]c4ccccc4c3C3CCCCCCC3C2C(=O)N1c1ccccc1 (configuration not stated) | – | 10.9 µM (inactive) | 1.92 µM (inactive) | 13.2 µM (inactive) | 12.9 µM (inactive) | > 10 µM (inactive) | 4.71 µM (inactive) | – | 4.71 µM (inactive)
CCOC(=O)C12CN(C34CC5CC(CC(C5)C3)C4)CC(C(=O)OCC)(C1=O)C(c1ccccc1)OC2c1ccccc1 (configuration not stated) | > 100 µM (inactive) | > 100 µM (inactive) | > 100 µM (inactive) | > 100 µM (inactive) | 31.3 µM (inactive) | > 100 µM (inactive) | 52.2 µM (inactive) | – | –
O=C1C2CCC(C2)C12CC1(c3ccccc3)C(=O)c3ccccc3N1O2 (configuration not stated) | > 100 µM (inactive) | > 100 µM (inactive) | > 100 µM (inactive) | > 100 µM (inactive) | > 100 µM (inactive) | > 100 µM (inactive) | > 100 µM (inactive) | > 100 µM (inactive) | –
CCOC(=O)C(C(CC(=O)OC)NC(=O)OCc1ccccc1)C1(C)OCCO1 (configuration not stated) | > 100 µM (inactive) | – | 61.4 µM (inactive) | – | > 100 µM (inactive) | > 100 µM (inactive) | > 100 µM (inactive) | – | –
C[C@@H](NC1CCCC[C@@H]1O)c1ccccc1 (some centres not stated) | > 100 µM (inactive) | > 100 µM (inactive) | > 100 µM (inactive) | > 100 µM (inactive) | > 100 µM (inactive) | > 100 µM (inactive) | – | > 100 µM (inactive) | –
NS(=O)(=O)c1ccccc1C(=O)N/N=C(\c1nc2ccc([N+](=O)[O-])cc2[nH]c1=O)C(O)c1ccc([N+](=O)[O-])cc1 (configuration not stated) | 46.2 µM (inactive) | > 100 µM (inactive) | > 100 µM (inactive) | – | > 100 µM (inactive) | > 100 µM (inactive) | – | > 100 µM (inactive) | –
CC(=O)OC1CC[C@@]2(C)C(CC[C@]3(C)C2CC=C2[C@@H]4C(C)[C@H](C)CCC4(C)CCC23C)[C@@]1(C)C(=O)O (some centres not stated) | 16.2 µM (inactive) | 23.1 µM (inactive) | 16.9 µM (inactive) | 26.5 µM (inactive) | 17.3 µM (inactive) | 18.7 µM (inactive) | 18.4 µM (inactive) | 16.3 µM (inactive) | 23.9 µM (inactive)
